# According to publication PMC9582199, “Molecular architecture of the glycogen- committed PP1/PTG holoenzyme” (Nature Communications, 2022):
# Where two headings read alike, the source gives them in different places.
# Legend:
# PP1 7-330 = biological target: T1, PP1 7-330 (Homo sapiens, UniProt P62136); assay: GCI binding kinetics of PTG-derived peptides on captured PP1; settings: 25 °C, 6xHis-PP1 7-330 captured on NTA chip, peptide 1:2 dilutions from 300 nM
# T1 construct: reversibly capturing 6xHis-tagged PP1^7-330; host or cells: E. coli BL21 (DE3) pGro7
# T1 sequence (P62136 7-330): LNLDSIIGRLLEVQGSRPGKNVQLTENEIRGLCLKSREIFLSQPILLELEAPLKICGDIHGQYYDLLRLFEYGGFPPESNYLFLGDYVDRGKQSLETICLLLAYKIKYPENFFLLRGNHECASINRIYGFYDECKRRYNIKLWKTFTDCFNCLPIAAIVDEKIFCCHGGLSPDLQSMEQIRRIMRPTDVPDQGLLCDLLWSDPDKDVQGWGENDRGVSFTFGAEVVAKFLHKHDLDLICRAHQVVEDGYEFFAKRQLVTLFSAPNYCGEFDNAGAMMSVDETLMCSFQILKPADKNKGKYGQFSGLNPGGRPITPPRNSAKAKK
# Procedure: (§1) Grating-coupled interferometry (GCI) experiments were performed using the Creoptix WAVE system, a new generation instrument for the high-sensitivity kinetics and affinity analysis of label-free molecular interactions based on the waveguide interferometry technology. Waveguide interferometry exceeds the sensitivity levels of Surface Plasmon Resonance (SPR). […] GCI allows getting high resolution even at very low signal levels with low noise without artificial data averaging and reliable kinetics below 1 pg/mm^2. By the lower immobilization levels that are required, it avoids mass transport limitations. It covers the broadest kinetic range with the capability of analyzing of the ultra-fast transition times (i.e. 150 ms). It allows the reliable determination of off-rates of 5 s^–1 and even faster, enabling off-rate screening of weakly binding analytes. GCI can be applied to a wide range of pharmacological targets, with improved results on very low molecular weight compounds, to the dimensions of metal ions[56].
# (§2) WAVE chips are composed of four channels or cells. Borate buffer (100 mM sodium borate pH 9.0, 1 M NaCl) was used for chip conditioning. […]
# (§3) Supplementary Figure 3: Quantitative binding kinetics by GCI. […]
# GM CBM21 = settings: cited from earlier work
# Excerpt: (§4) The same two sugar-binding sites have been identified in the crystal structures of Rhizopus oryzae CBM21[13],[14]; site II is the primary binding site, while site I has been hypothesized to contribute to the binding of long-chain soluble polysaccharides and insoluble starch or to the relaxation and unwinding of helical amylose[15],[16].
# R. oryzae CBM21 = settings: cited from earlier work
# Excerpt: as §4
# PTG132-264 (CBM) = biological target: T2, PTG132-264 (CBM) (Homo sapiens, UniProt Q9UQK1); assay: GCI binding kinetics of β-cyclodextrin on immobilized PTG; settings: 25 °C, 10 mM Hepes pH 7.2, 150 mM NaCl, 0.005% Tween 20, 1:3 dilutions from 500 µM
# T2 sequence (Q9UQK1 132-264): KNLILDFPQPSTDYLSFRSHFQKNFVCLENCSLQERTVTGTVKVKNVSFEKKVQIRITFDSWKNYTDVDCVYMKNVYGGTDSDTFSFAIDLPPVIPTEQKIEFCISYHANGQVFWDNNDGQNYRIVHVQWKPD
# Procedure: as §1, §2, §3
# [1] = biological target: T3, PTG CBM21 (residues 132–264) (Homo sapiens, UniProt Q9UQK1); assay: ITC titration of PTG CBM21 with β-cyclodextrin; assay type: binding; settings: 25 °C
# T3 sequence (Q9UQK1 132-264): T2 sequence (Q9UQK1 132-264)
# Procedure: ITC experiments were performed using an ITC 200 microcalorimeter (Malvern Panalytical, UK) at 25 °C with a stirring speed of 750 rpm in 25 mM Hepes pH 7.4, 0.2 M NaCl, 5% glycerol with 180 s separating the injections. β-cyclodextrin was dissolved in the running buffer and two datasets were collected, one with PTG CBM21 concentration at 100 μM and β-cyclodextrin at 3 mM with 40 injections of 1 µl, the other at 200 μM and 4 mM, respectively, with 80 injections of 1 µl. A blank run with only the buffer was carried out. Data analysis was done with ORIGIN subtracting the blank titrations fitting ‘one site’ and ‘two sites’ models.
# PP1 = assay: Literature binding of GM constructs to PP1; settings: GM 64–105 (KD 114 nM, ref 12) compared with the corresponding PTG peptide
# [2] = 'two sites' model with stoichiometry fixed, average of two runs
# [3] = 'two sites' model, average of two runs
# [4] = 'two sites' model, average of two separate runs
compound,measurement,setting,value
"PTG81-132: extended PTG peptide, residues 81–132, including RVVF and SALK sequences; ProteoGenix SAS (AKKRVVFADSKGLSLTAIHVFSDLPEEPAWDLQFDLLDLNDISSALKHHEEK)",KD by GCI for binding to PP1,PP1 7-330,almost halved
OC[C@H]1O[C@@H]2O[C@H]3[C@H](O)[C@@H](O)[C@@H](O[C@H]4[C@H](O)[C@@H](O)[C@@H](O[C@H]5[C@H](O)[C@@H](O)[C@@H](O[C@H]6[C@H](O)[C@@H](O)[C@@H](O[C@H]7[C@H](O)[C@@H](O)[C@@H](O[C@H]8[C@H](O)[C@@H](O)[C@@H](O[C@H]1[C@H](O)[C@H]2O)O[C@@H]8CO)O[C@@H]7CO)O[C@@H]6CO)O[C@@H]5CO)O[C@@H]4CO)O[C@@H]3CO [β-cyclodextrin],Kd,GM CBM21,8.2 µM
same,Kd,R. oryzae CBM21,5.1 µM
same,Kd,PTG132-264 (CBM),37 ± 7 µM
same,Kd,"[1]; 25 mM Hepes pH 7.4, 0.2 M NaCl, 5% glycerol, 'one site' model, average of two separate runs, read-out: KD (KD1), 1 Site model",59 ± 5 µM
same,"ΔS1, 1 Site model","[1]; 'one site' model, average of two separate runs",-53 cal mol-1 K-1
same,"N (stoichiometry), 1 Site model","[1]; 'one site' model, average of two separate runs, listed as b-cyclodextrin",1.09
same,Kd,"[1]; 'two sites' model with stoichiometry fixed (N 1.0 each site), average of two runs, read-out: KD1, 2 Sites fixed model, first site",49 ± 4 µM
same,"ΔH1, 2 Sites fixed model, first site",[1]; [2],-24.6 ± 0.7 kcal/mol
same,"ΔS1, 2 Sites fixed model, first site",[1]; [2],-62 cal mol-1 K-1
same,"ΔS2, 2 Sites fixed model, second site",[1]; [2],21 cal mol-1 K-1
same,Kd,"[1]; 'two sites' model with stoichiometry fixed, average of two runs, spread ± 154, site spurious or ancillary, read-out: KD2, 2 Sites fixed model, second site",346 µM
same,"ΔH2, 2 Sites model, second site",[1]; [3],-16 ± 2 kcal/mol
same,"ΔS2, 2 Sites model, second site",[1]; [3],-29 cal mol-1 K-1
same,"N2, 2 Sites model, second site","[1]; 'two sites' model, average of two runs, paper calls second-site stoichiometry inconsistent",0.3
same,Kd,"[1]; 'two sites' model, average of two runs, second site judged inconsistent, read-out: KD2, 2 Sites model, second site",3 ± 2 µM
same,"N1, 2 Sites model, first site",[1]; [4],1.06
same,"ΔH1, 2 Sites model, first site",[1]; [4],-18 ± 4 kcal/mol
same,"ΔS1, 2 Sites model, first site",[1]; [4],-40 cal mol-1 K-1
same,Kd,"[1]; 'two sites' model, average of two separate runs, read-out: KD1, 2 Sites model, first site",63 ± 6 µM
"GM peptide 64–105: GM (PPP1R3A) peptide 64–105, corresponding to PTG 84–131; literature comparator (VSFADSFGFNLVSVKEFDCWELPSASTTFDLGTDIFHTEEYV; UniProt Q16821 64-105, looked up, fragment)",times weaker PP1 binding than measured for PTG,PP1,~15 times
